Experimental data from article PMC7700809 (Molecular Biomedicine, 2020).
Where two headings read alike, the source gives them in different places.

Columns and labels:
[1] = In vivo plasma pharmacokinetics in beagle dogs; conditions: Dog; for MRT last: read-out: MRT0-t; for MRT inf: read-out: MRT0-∞
Description: After dosage, blood samples were collected into heparinized tubes at 2, 5, 15, 30, 60, 120, 240, 360, 540, and 720 min for the i.v. group, and at 5, 15, 30, 60, 90, 120, 240, 360, 540, 720 and 1440 min for the i.g. group. Plasma (100 μL) was isolated from the blood sample by centrifuging at 4 °C and 6000 rpm for 3 min and then stored at − 80 °C until analysis. An aliquot of 100 μL of each plasma sample was mixed with 20 μL of internal standard working solution (200 ng/mL of caffeine). Methanol (400 μL) was then added for precipitation. After vortexing for 5 min and centrifuging at 14000 rpm for 10 min, 5 μL of the supernatant was injected for LC-MS/MS analysis.
The PK parameters were analyzed through the noncompartment model using WinNonlin 6.1 software (Pharsight Corporation, Mountain View, USA), including half-life (T1/2), the peak of the plasma concentration (Cmax), the time to peak of the plasma concentration (Tmax), the area under the plasma concentration-time curve during the period of observation (AUC0-t), the area under the plasma concentration-time curve from zero to infinity (AUC0-∞), clearance (CL), apparent volume of distribution (Vd), and the mean residence time.

[2] = mice
SARS-CoV-2 [3] = experiment: microbe, parasite or virus in culture; type: cell-based; conditions: Severe acute respiratory syndrome coronavirus 2, Vero; read-out: EC50 antiviral replication effect
[4] = Lung distribution in rats after oral administration
Description: (§3) The male mice (20–25 g) and Sprague-Dawley rats (180–220 g) were provided by Laboratory Animal Center of Anhui Medical University (Hefei, China), and the beagle dogs were obtained from Nanjing Bosgene Biotech Co., Ltd. All the animals were housed under control conditions (temperature 23 ± 2 °C, humidity 50% ± 5%, 12 h dark/light cycle) with standardized diet and acclimatized for 7 days, prior to the experiments.
(§4) Seventy-two mice or rats were randomly and equally divided into two groups. […] Tissues (liver, lung, and kidney) were promptly harvested at 1, 2, 4, 6, 9, 12, 24, 48, 72, and 144 h. Each tissue sample was homogenized (Tissue sample:saline ratio of 1:5, w/v). Tissue samples were stored at − 80 °C until further analysis. The preparation process for analysis was the same as described above for plasma.
(§5) The LC-MS/MS system consisted of a SHIMADZU LC-30 AD series HPLC system (Shimadzu, Kyoto, Japan) and API4000 triple quadrupole mass spectrometer (Applied Biosystems Sciex, Ont., Canada) with electrospray ionization (ESI) source. Separation was carried out on a C18 column (2.1 × 100 mm, 5 μm, Hanbon, Jiangsu, China) kept at 40 °C. The mobile phase consisted of water (containing 0.1% formic acid, mobile phase A) and methanol (mobile phase B) with rate set at 0.3 mL/min. The optimal gradient elution curve included 0–1.0 min, 10% B; a linear increase to 90% a within 0.5 min; 90% B for 3.5 min; a linear decrease to 10% B within 0.5 min. 10% B for 1.5 min; 7.00 min, stop.
(§6) LC-MS/MS was performed in the positive and multiple reaction monitoring (MRM) mode.

IL-6 = experiment: LPS induced IL-6 protein level in M1 polarized THP-1 macrophages (ELISA); type: cell-based, Human; conditions: 0.01 μM, 36 h
Description: (§1) Results are expressed as means ±S.D. (n = 3).
(§2) Human monocytic THP-1 cells were maintained in RPMI 1640 medium (Corning, USA) supplemented with 2% L-glutamine,10% fetal bovine serum (FBS), 1% penicillin/ streptomycin and […] ß-mercaptoethanol. THP-1 monocytes are differentiated into macrophages by 24 h incubation with 150 nM phorbol 12-myristate 13-acetate (PMA, Sigma, P8139) followed by 24 h incubation in RPMI medium. Macrophages were polarized in M1 macrophages by incubation with 20 ng/ml of IFN-γ (R&D system, #285-IF) and 100 ng/ml of LPS (Sigma, #8630). […] Cytokine secretion in the culture medium was assayed using an ELISA kit according to the procedure recommended by the supplier (IL-6 (MultiSciences, 70-EK106/2–96), TNFα (MultiSciences,70-EK182HS-96)).

SARS-CoV-2 [5] = experiment: microbe, parasite or virus in culture; type: cell-based; conditions: Severe acute respiratory syndrome coronavirus 2, Vero; read-out: EC50 virus entry blocking
in vitro = conditions: African green monkey
TNF-α = TNF-α protein level in M1 polarized THP-1 macrophages (ELISA); type: cell-based, Human; conditions: 0.1 μM, 36 h
Description: as §1, §2

in vivo = conditions: male, mouse, lung, po
Description: as §3, §4, §5, §6

[6] = tested on: SARS-CoV-2 specific nucleocapsid; experiment: Western blot analysis of nucleocapsid level in Vero cells; type: cell-based

In the case of `CC[C@H]1CN2CCc3cc(OC)c(OC)cc3[C@@H]2C[C@@H]1C[C@H]1NCCc2cc(OC)c(OC)cc21` [Emetine], the AUMC0-t ([1]; I.V. 1 mg/kg) is reported as 1331 ± 695 hr*hr.*ng/mL, the “AUMC0-∞” value ([1]; I.V. 1 mg/kg) is reported as 1626 ± 679 hr*hr.*ng/mL and the AUMC0-t ([1]; P.O. 5 mg/kg) is reported as 12,464 ± 9313 hr*hr.*ng/mL. The “AUMC0-∞” value ([1]; P.O. 5 mg/kg) was 19,162 ± 13,435 hr*hr.*ng/mL, the Cl ([1]; P.O. 5 mg/kg) was 72.95 ± 62.47 mL/min/kg and the Vz ([1]; P.O. 5 mg/kg) was 51,033 ± 45,021 mL/kg. The AUC(0-inf) ([1]; beagle, iv, I.V. 1 mg/kg) was 468 ± 298 ng·h/mL, the AUC(0-t) ([1]; beagle, iv, I.V. 1 mg/kg) was 449 ± 298 ng·h/mL and the C0 ([1]; beagle, iv, I.V. 1 mg/kg) was 351 ± 44 ng/mL. It also gave a Cmax ([1]; beagle, iv, I.V. 1 mg/kg) of 260 ± 66.7 ng/mL, a Tmax ([1]; beagle, iv, I.V. 1 mg/kg) of 0.03 h and a clearance ([1]; beagle, iv, I.V. 1 mg/kg) of 45.8 mL/min/kg. It also gave a half-life ([1]; beagle, iv, I.V. 1 mg/kg) of 2.45 ± 0.91 h, an MRT last ([1]; beagle, iv, I.V. 1 mg/kg) of 3.2 ± 0.78 h and an MRT inf ([1]; beagle, iv, I.V. 1 mg/kg) of 3.82 ± 0.86 h. The Vd ([1]; beagle, iv, I.V. 1 mg/kg, read-out: Vz) was 9.55 ± 5.26 L/kg, the AUC(0-inf) ([1]; beagle, po, P.O. 5 mg/kg) was 1740 ± 1080 ng·h/mL and the AUC(0-t) ([1]; beagle, po, P.O. 5 mg/kg) was 1550 ± 964 ng·h/mL. For the same molecule, the Cmax ([1]; beagle, po, P.O. 5 mg/kg) was 245 ± 164 ng/mL, the Tmax ([1]; beagle, po, P.O. 5 mg/kg) was 0.25 h and the half-life ([1]; beagle, po, P.O. 5 mg/kg) was 7.99 ± 0.35 h. For the same molecule, the bioavailability ([1]; beagle, po, P.O. 5 mg/kg vs I.V. 1 mg/kg, read-out: F (oral bioavailability)) was 74.2 ± 46.2%, the MRT last ([1]; beagle, po, P.O. 5 mg/kg) was 7.63 ± 1.32 h and the MRT inf ([1]; beagle, po, P.O. 5 mg/kg) was 10.7 ± 1.21 h. For the same molecule, the Lung concentration ([2]; 1 mg/kg I.V. (12 h value of Table s2)) was 3.8 µM, the Kidney concentration ([2]; I.V. 1 mg/kg, 0.033 h) was 8.52 ± 1.25 µM and the Liver concentration ([2]; I.V. 1 mg/kg, 0.033 h) was 4.11 ± 1.25 µM. It also gave a Plasma concentration ([2]; I.V. 1 mg/kg, 0.033 h) of 150 ± 60 nM, a Kidney concentration ([2]; I.V. 1 mg/kg, 0.083 h) of 8.04 ± 0.57 µM and a Liver concentration ([2]; I.V. 1 mg/kg, 0.083 h) of 3.05 ± 0.23 µM. It also gave a Lung concentration ([2]; I.V. 1 mg/kg, 0.083 h) of 16.5 ± 1.59 µM, a Plasma concentration ([2]; I.V. 1 mg/kg, 0.083 h) of 110 ± 20 nM and a Kidney concentration ([2]; I.V. 1 mg/kg, 0.5 h) of 9.48 ± 1.10 µM. For the same molecule, the Liver concentration ([2]; I.V. 1 mg/kg, 0.5 h) was 5.01 ± 1.13 µM, the Lung concentration ([2]; I.V. 1 mg/kg, 0.5 h) was 10.3 ± 1.45 µM and the Plasma concentration ([2]; I.V. 1 mg/kg, 0.5 h) was 40 ± 20 nM. It also gave a Kidney concentration ([2]; I.V. 1 mg/kg, 1 h) of 9.24 ± 0.44 µM, a Liver concentration ([2]; I.V. 1 mg/kg, 1 h) of 4.78 ± 0.43 µM and a Lung concentration ([2]; I.V. 1 mg/kg, 1 h) of 7.73 ± 1.22 µM. For the same molecule, the Plasma concentration ([2]; I.V. 1 mg/kg, 1 h) was 30 ± 6 nM, the Kidney concentration ([2]; I.V. 1 mg/kg, 2 h) was 9.04 ± 0.15 µM and the Liver concentration ([2]; I.V. 1 mg/kg, 2 h) was 6.12 ± 1.37 µM. It also gave a Lung concentration ([2]; I.V. 1 mg/kg, 2 h) of 7.12 ± 2.30 µM, a Plasma concentration ([2]; I.V. 1 mg/kg, 2 h) of 12 ± 3 nM and a Kidney concentration ([2]; I.V. 1 mg/kg, 4 h) of 6.16 ± 0.77 µM. The Liver concentration ([2]; I.V. 1 mg/kg, 4 h) was 6.46 ± 0.57 µM, the Lung concentration ([2]; I.V. 1 mg/kg, 4 h) was 5.85 ± 1.20 µM and the Plasma concentration ([2]; I.V. 1 mg/kg, 4 h) was 7 ± 1 nM. It also gave a Liver concentration ([2]; I.V. 1 mg/kg, 6 h) of 6.87 ± 0.65 µM, a Lung concentration ([2]; I.V. 1 mg/kg, 6 h) of 5.42 ± 0.13 µM and a Plasma concentration ([2]; I.V. 1 mg/kg, 6 h) of 9 ± 4 nM. For the same molecule, the Kidney concentration ([2]; I.V. 1 mg/kg, 9 h) was 5.96 ± 0.76 µM, the Liver concentration ([2]; I.V. 1 mg/kg, 9 h) was 9.22 ± 0.81 µM and the Lung concentration ([2]; I.V. 1 mg/kg, 9 h) was 5.63 ± 1.00 µM. For the same molecule, the Plasma concentration ([2]; I.V. 1 mg/kg, 9 h) was 8 ± 4 nM, the Kidney concentration ([2]; I.V. 1 mg/kg, 12 h) was 4.29 ± 0.79 µM and the Liver concentration ([2]; I.V. 1 mg/kg, 12 h) was 8.17 ± 1.46 µM. The Lung concentration ([2]; I.V. 1 mg/kg, 12 h) was 3.77 ± 0.96 µM, the Plasma concentration ([2]; I.V. 1 mg/kg, 12 h) was 7 ± 5 nM and the Kidney concentration ([2]; I.V. 1 mg/kg, 48 h) was 0.879 ± 0.278 µM. It also gave a Liver concentration ([2]; I.V. 1 mg/kg, 48 h) of 1.67 ± 0.872 µM, a Lung concentration ([2]; I.V. 1 mg/kg, 48 h) of 1.67 ± 0.28 µM and a Liver concentration ([2]; I.V. 1 mg/kg, 72 h) of 0.620 ± 0.024 µM. For the same molecule, the Lung concentration ([2]; I.V. 1 mg/kg, 72 h) was 0.852 ± 0.075 µM, the Kidney concentration ([2]; I.V. 1 mg/kg, 144 h) was 0.174 ± 0.018 µM and the Liver concentration ([2]; I.V. 1 mg/kg, 144 h) was 0.129 ± 0.041 µM. For the same molecule, the Lung concentration ([2]; I.V. 1 mg/kg, 144 h) was 0.263 ± 0.034 µM, the AUMC0-t ([2]; I.V. 1 mg/kg, Kidney) was 193,238 hr*hr.*ng/mL and the “AUMC0-∞” value ([2]; I.V. 1 mg/kg, Kidney) was 2,810,677 hr*hr.*ng/mL. For the same molecule, the AUMC0-t ([2]; I.V. 1 mg/kg, Liver) was 275,511 hr*hr.*ng/mL, the “AUMC0-∞” value ([2]; I.V. 1 mg/kg, Liver) was 3,897,180 hr*hr.*ng/mL and the AUMC0-t ([2]; I.V. 1 mg/kg, Lung) was 181,502 hr*hr.*ng/mL. For the same molecule, the “AUMC0-∞” value ([2]; I.V. 1 mg/kg, Lung) was 1,038,814 hr*hr.*ng/mL, the EC50 (SARS-CoV-2 [3]) was 7 nM and the Rat lung con. ([4]; 1 mg/kg (P.O.) single dose, 1 h) was 0.15 ± 0.03 ng/mL. The Rat lung con. ([4]; 1 mg/kg (P.O.) single dose, 2 h) was 0.26 ± 0.06 ng/mL, the Rat lung con. ([4]; 1 mg/kg (P.O.) single dose, 4 h) was 0.93 ± 0.32 ng/mL and the Rat lung con. ([4]; 1 mg/kg (P.O.) single dose, 6 h) was 1.01 ± 0.10 ng/mL. For the same molecule, the Rat lung con. ([4]; 1 mg/kg (P.O.) single dose, 9 h) was 1.47 ± 0.09 ng/mL, the Rat lung con. ([4]; 1 mg/kg (P.O.) single dose, 12 h) was 1.61 ± 0.48 ng/mL and the Rat lung con. ([4]; 1 mg/kg (P.O.) single dose, 24 h) was 1.32 ± 0.63 ng/mL. The Rat lung con. ([4]; 1 mg/kg (P.O.) single dose, 48 h) was 0.76 ± 0.11 ng/mL, the Rat lung con. ([4]; 1 mg/kg (P.O.) single dose, 72 h) was 0.36 ± 0.08 ng/mL and the Rat lung con. ([4]; 1 mg/kg (Q.D.× 3 days, P.O.), 1 h) was 5.78 ± 0.61 ng/mL. The Rat lung con. ([4]; 1 mg/kg (Q.D.× 3 days, P.O.), 2 h) was 6.51 ± 0.67 ng/mL, the Rat lung con. ([4]; 1 mg/kg (Q.D.× 3 days, P.O.), 4 h) was 6.65 ± 1.21 ng/mL and the Rat lung con. ([4]; 1 mg/kg (Q.D.× 3 days, P.O.), 6 h) was 6.96 ± 0.87 ng/mL. The Rat lung con. ([4]; 1 mg/kg (Q.D.× 3 days, P.O.), 9 h) was 8.34 ± 1.09 ng/mL, the Rat lung con. ([4]; 1 mg/kg (Q.D.× 3 days, P.O.), 12 h) was 8.16 ± 1.58 ng/mL and the Rat lung con. ([4]; 1 mg/kg (Q.D.× 3 days, P.O.), 24 h) was 7.25 ± 0.79 ng/mL. The Rat lung con. ([4]; 1 mg/kg (Q.D.× 3 days, P.O.), 48 h) was 5.97 ± 0.81 ng/mL, the Rat lung con. ([4]; 1 mg/kg (Q.D.× 3 days, P.O.), 72 h) was 4.89 ± 1.35 ng/mL and the Lung concentration ([4]; rats, 1 mg/kg single oral dose, 12 h, 1 mg/kg) was 1.6 µM. The “time of maximum lung concentration (Cmax)” value ([4]; rats, 1 mg/kg/day oral 3 days) was 9 h, the “LPS induced IL-6 expression level” value (IL-6) was “significantly reduce” and the EC50 (SARS-CoV-2 [5]) was 19 nM. The CC50 (in vitro) was 1960 nM, the TNF-α expression (TNF-α) was “moderate effect” and the concentration at 12 h (in vivo; 1 mg/kg) was 1800 nM. The concentration at 72 h (in vivo; 1 mg/kg) was 230 nM, the concentration at 1 h (in vivo; 1 mg/kg/day) was 5000 to 6000 nM and the concentration at 72 h (in vivo; 1 mg/kg/day) was 2170 nM. The “SARS-CoV-2 specific nucleocapsid level, anti-replication effect” value ([6]; Vero cells infected […], then drug 24 h) was “dose-dependently decreased” and the “SARS-CoV-2 specific nucleocapsid level, anti-entry effect” value ([6]; Vero cells pretreated with drug […], virus […], 24 h) was “confirmed this trend”.
